Columns and labels:
pigweed = assay: Test B pre-/postemergence herbicide test; type: in vivo, Amaranthus retroflexus
How it was run: (§1)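 Plants compared with untreated controls 13–15 days post-treatment and given a visual 0–100 injury score. Applications: preemergence to seeds; postemergence at 1- to 4-leaf (2–18 cm); paddy species flooded, 2-leaf stage. Vehicle non-phytotoxic, surfactant included.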

ducksalad = assay: Test B flooded paddy test; type: in vivo, Heteranthera limosa; settings: 1000 g ai/ha, scale 0 to 100 (0 no effect, 100 complete control)
How it was run: (§2)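 Read-out: visual comparison with controls, scored 0 to 100, where 100 means complete control and 0 no effect. Formulated chemicals were applied postemergence to plants 2–18 cm tall (1- to 4-leaf), or to flooded-paddy plants at the 2-leaf stage, then held 13 to 15 days under glass.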

wild oat = assay: Test B postemergence herbicide test; type: in vivo, Avena fatua
How it was run: as §2

rice [1] = assay: Test B pre-/postemergence herbicide test; type: in vivo, Oryza sativa; settings: 0 = no effect, 100 = complete control, preemergence; for Rice plant response rating (0 to 100 scale): 125 g ai/ha; for Plant response rating, Rice: 500 g ai/ha, visual rating
How it was run: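 Greenhouse pot assay with simultaneous preemergence (treated seed) and postemergence (2–18 cm seedlings) applications of surfactant-containing, non-phytotoxic solvent formulations. Response scored visually 13–15 days later on a 0–100 scale, 100 meaning complete control.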

[2] = tested on: small flower umbrella sedge; assay: Test B flooded paddy test; type: in vivo, Cyperus difformis; settings: 1000 g ai/ha, scale 0 to 100 (0 no effect, 100 complete control)
How it was run: as §2

rice [3] = assay: Test B flooded paddy test; type: in vivo, Oryza sativa; settings: 1000 g ai/ha, scale 0 to 100 (0 no effect, 100 complete control)
How it was run: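 Formulated test chemicals went onto postemergence plants measuring 2 to 18 cm, at one to four leaves. For the paddy assay, species had reached two leaves. Scoring took place 13–15 days later by eye, relative to untreated plants, using 0 for no effect up to 100 for full control.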

giant foxtail [4] = assay: Test B pre-/postemergence herbicide test; type: in vivo, Setaria faberi
How it was run: as §1

large crabgrass [5] = assay: Test A pre-/postemergence herbicide test; type: in vivo, Digitaria sanguinalis
How it was run: (§3)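 Pre: seeded sandy loam, directed soil spray, compound in non-phytotoxic solvent + surfactant. Post: 1–2-leaf plants (2–10 cm), sprayed to runoff. Greenhouse ~10 d; visual injury vs untreated, 0–100 scale.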

morningglory [6] = assay: Test A pre-/postemergence herbicide test; type: in vivo, Ipomoea spp.
How it was run: as §3

Surinam grass = assay: Test B pre-/postemergence herbicide test; type: in vivo, Urochloa decumbens
How it was run: as §1

barnyardgrass [7] = assay: Test B pre-/postemergence herbicide test; type: in vivo, Echinochloa crus-galli
How it was run: (§4)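 Pre: seeds sown, then sprayed. Post: 1–4-leaf plants (2–18 cm) sprayed at the same time. Paddy: flooded, treated at 2-leaf stage. Formulation: non-phytotoxic solvent with surfactant. Greenhouse 13–15 days; visual 0–100 score relative to controls.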

velvetleaf [8] = assay: Test A pre-/postemergence herbicide test; type: in vivo, Abutilon theophrasti
How it was run: as §3

barnyardgrass [9] = assay: Test B flooded paddy test; type: in vivo, Echinochloa crus-galli; settings: 1000 g ai/ha, scale 0 to 100 (0 no effect, 100 complete control)
How it was run: as §2

blackgrass = assay: Test B postemergence herbicide test; type: in vivo, Alopecurus myosuroides
How it was run: as §2

barnyardgrass [10] = assay: Test A pre-/postemergence herbicide test; type: in vivo, Echinochloa crus-galli
How it was run: as §3

lambsquarters = assay: Test B pre-/postemergence herbicide test; type: in vivo, Chenopodium album
How it was run: as §1

velvetleaf [11] = assay: Test B pre-/postemergence herbicide test; type: in vivo, Abutilon theophrasti
How it was run: as §1

corn = assay: Test B pre-/postemergence herbicide test; type: in vivo, Zea mays
How it was run: as §1

cocklebur = assay: Test B pre-/postemergence herbicide test; type: in vivo, Xanthium strumarium
How it was run: as §4

large crabgrass [12] = assay: Test B pre-/postemergence herbicide test; type: in vivo, Digitaria sanguinalis
How it was run: as §1

giant foxtail [13] = assay: Test A pre-/postemergence herbicide test; type: in vivo, Setaria faberi
How it was run: as §3

redroot pigweed = assay: Test A pre-/postemergence herbicide test; type: in vivo, Amaranthus retroflexus
How it was run: as §3

wheat = assay: Test B postemergence herbicide test; type: in vivo, Triticum aestivum; set-up: key to Wheat plant response rating: 0 = no effect, 100 = complete control
How it was run: as §2

morningglory [14] = assay: Test B pre-/postemergence herbicide test; type: in vivo, Ipomoea coccinea
How it was run: as §4

[15] = 125 g ai/ha; 0 = no effect, 100 = complete control; preemergence
[16] = 500 g ai/ha; visual rating, 0 = no effect, 100 = complete control; preemergence
[17] = postemergence, 125 g ai/ha; visual rating, scale 0 (no effect) to 100 (complete control)
[18] = postemergence, 500 g ai/ha; scale 0 to 100, 0 is no effect, 100 is complete control
[19] = Postemergence, 500 g ai/ha, 0 to 100 scale, 0 no effect, 100 complete control
[20] = Postemergence, 2000 g ai/ha, 0 to 100 scale, 0 no effect, 100 complete control
[21] = Preemergence, 2000 g ai/ha, visual rating, 0 to 100 scale (0 no effect, 100 complete control)
[22] = preemergence, 500 g ai/ha, visual injury, 0 to 100 scale (0 no effect, 100 complete control)
[23] = 125 g ai/ha; visual rating, scale 0 (no effect) to 100 (complete control); postemergence

CCn1nc(C(C)(C)C)cc1C(=O)Nc1ccnc(C(=O)N2CC=CC2)c1 [Compound 282]
45: Velvetleaf plant response rating (velvetleaf [8]; [21])
20: Pigweed plant response rating (pigweed; [17]) | Oat, Wild plant response rating (wild oat; [18]) | Rice plant response rating (rice [3]) | Plant response rating, Foxtail, Giant (giant foxtail [4]; [16]) | Foxtail, Giant plant response rating (giant foxtail [4]; [17]) | Foxtail, Giant plant response rating (giant foxtail [4]; [18]) | Plant response rating, Surinam Grass (Surinam grass; [16]) | Barnyardgrass plant response rating (barnyardgrass [7]; [18]) | Velvetleaf plant response rating (velvetleaf [8]; [22]) | Barnyardgrass plant response rating (barnyardgrass [9]) | Blackgrass plant response rating (blackgrass; [17]) | Velvetleaf plant response rating (velvetleaf [11]; [18]) | Corn plant response rating (corn; [18]) | Cocklebur plant response rating (cocklebur; [18]) | Foxtail, Giant plant response rating (giant foxtail [13]; [19]) | Morningglory plant response rating (morningglory [14]; [18])
75: Barnyardgrass plant response rating (barnyardgrass [10]; [21]) | Pigweed plant response rating (redroot pigweed; [19])
80: Ducksalad plant response rating (ducksalad) | Plant response rating, Barnyardgrass (barnyardgrass [10]; [20]) | Plant response rating, Crabgrass, Large (large crabgrass [12]; [16])
30: Barnyardgrass plant response rating (0 to 100 scale) (barnyardgrass [7]; [15]) | Blackgrass plant response rating (blackgrass; [18]) | Barnyardgrass plant response rating (barnyardgrass [10]; [22]) | Plant response rating, Velvetleaf (velvetleaf [11]; [16]) | Wheat plant response rating (wheat; [17]) | Wheat plant response rating (wheat; [18])
10: Rice plant response rating (0 to 100 scale) (rice [1]) | Foxtail, Giant plant response rating (0 to 100 scale) (giant foxtail [4]; [15]) | Crabgrass, Large plant response rating (large crabgrass [5]; [19]) | Morningglory plant response rating (morningglory [6]; [22]) | Surinam Grass plant response rating (Surinam grass; [17]) | Surinam Grass plant response rating (Surinam grass; [18]) | Lambsquarters plant response rating (lambsquarters; [17]) | Velvetleaf plant response rating (0 to 100 scale) (velvetleaf [11]; [15]) | Velvetleaf plant response rating (velvetleaf [11]; [17]) | Corn plant response rating (corn; [17]) | Cocklebur plant response rating (cocklebur; [17]) | Crabgrass, Large plant response rating (0 to 100 scale) (large crabgrass [12]; [15]) | Crabgrass, Large plant response rating (large crabgrass [12]; [17]) | Crabgrass, Large plant response rating (large crabgrass [12]; [18]) | Foxtail, Giant plant response rating (giant foxtail [13]; [22]) | Morningglory plant response rating (morningglory [14]; [17])
65: Crabgrass, Large plant response rating (large crabgrass [5]; [21])
100: Pigweed plant response rating (0 to 100 scale) (pigweed; [15]) | Plant response rating, Pigweed (pigweed; [16]) | Lambsquarters plant response rating (0 to 100 scale) (lambsquarters; [15]) | Plant response rating, Lambsquarters (lambsquarters; [16]) | Plant response rating, Pigweed (redroot pigweed; [20])
0: Oat, Wild plant response rating (wild oat; [17]) | Sedge, Umbrella plant response rating [2] | Surinam Grass plant response rating (0 to 100 scale) (Surinam grass; [15]) | Barnyardgrass plant response rating (barnyardgrass [7]; [17]) | Corn plant response rating (0 to 100 scale) (corn; [15]) | Plant response rating, Corn (corn; [16]) | Cocklebur plant response rating (0 to 100 scale) (cocklebur; [15]) | Plant response rating, Cocklebur (cocklebur; [16]) | Morningglory plant response rating (0 to 100 scale) (morningglory [14]; [15]) | Plant response rating, Morningglory (morningglory [14]; [16])
15: Morningglory plant response rating (morningglory [6]; [19]) | Plant response rating, Morningglory (morningglory [6]; [20])
90: Pigweed plant response rating (redroot pigweed; [21]) | Pigweed plant response rating (redroot pigweed; [22])
25: Plant response rating, Crabgrass, Large (large crabgrass [5]; [20]) | Plant response rating, Foxtail, Giant (giant foxtail [13]; [20])
60: Pigweed plant response rating (pigweed; [18]) | Lambsquarters plant response rating (lambsquarters; [18])
40: Plant response rating, Rice (rice [1]) | Crabgrass, Large plant response rating (large crabgrass [5]; [22]) | Morningglory plant response rating (morningglory [6]; [21]) | Barnyardgrass plant response rating (barnyardgrass [10]; [19]) | Foxtail, Giant plant response rating (giant foxtail [13]; [21])
50: Plant response rating, Barnyardgrass (barnyardgrass [7]; [16]) | Velvetleaf plant response rating (velvetleaf [8]; [19]) | Plant response rating, Velvetleaf (velvetleaf [8]; [20])

C#CCNC(=O)c1cncc(NC(=O)c2cc(C(C)(C)C)nn2CC)n1 [Compound 289]
75: Pigweed plant response rating (redroot pigweed; [21])
10: Pigweed plant response rating (pigweed; [23]) | Morningglory plant response rating (morningglory [6]; [19]) | Blackgrass plant response rating (blackgrass; [23]) | Blackgrass plant response rating (blackgrass; [18]) | Barnyardgrass plant response rating (barnyardgrass [10]; [19]) | Velvetleaf plant response rating (velvetleaf [11]; [18]) | Foxtail, Giant plant response rating (giant foxtail [13]; [19]) | Foxtail, Giant plant response rating (giant foxtail [13]; [22])
30: Oat, Wild plant response rating (wild oat; [18]) | Lambsquarters plant response rating (lambsquarters; [18])
55: Crabgrass, Large plant response rating (large crabgrass [5]; [21])
70: Plant response rating, Foxtail, Giant (giant foxtail [13]; [20])
5: Plant response rating, Velvetleaf (velvetleaf [8]; [20])
15: Morningglory plant response rating (morningglory [6]; [21])
40: Plant response rating, Barnyardgrass (barnyardgrass [10]; [20]) | Foxtail, Giant plant response rating (giant foxtail [13]; [21])
0: Pigweed plant response rating (0 to 100 scale) (pigweed; [15]) | Ducksalad plant response rating (ducksalad) | Rice plant response rating (0 to 100 scale) (rice [1]) | Plant response rating, Rice (rice [1]) | Sedge, Umbrella plant response rating [2] | Rice plant response rating (rice [3]) | Foxtail, Giant plant response rating (0 to 100 scale) (giant foxtail [4]; [15]) | Plant response rating, Foxtail, Giant (giant foxtail [4]; [16]) | Crabgrass, Large plant response rating (large crabgrass [5]; [22]) | Morningglory plant response rating (morningglory [6]; [22]) | Surinam Grass plant response rating (0 to 100 scale) (Surinam grass; [15]) | Surinam Grass plant response rating (Surinam grass; [23]) | Plant response rating, Surinam Grass (Surinam grass; [16]) | Surinam Grass plant response rating (Surinam grass; [18]) | Barnyardgrass plant response rating (0 to 100 scale) (barnyardgrass [7]; [15]) | Barnyardgrass plant response rating (barnyardgrass [7]; [23]) | Plant response rating, Barnyardgrass (barnyardgrass [7]; [16]) | Barnyardgrass plant response rating (barnyardgrass [7]; [18]) | Velvetleaf plant response rating (velvetleaf [8]; [19]) | Velvetleaf plant response rating (velvetleaf [8]; [22]) | Barnyardgrass plant response rating (barnyardgrass [9]) | Barnyardgrass plant response rating (barnyardgrass [10]; [22]) | Lambsquarters plant response rating (0 to 100 scale) (lambsquarters; [15]) | Lambsquarters plant response rating (lambsquarters; [23]) | Velvetleaf plant response rating (velvetleaf [11]; [23]) | Plant response rating, Velvetleaf (velvetleaf [11]; [16]) | Corn plant response rating (0 to 100 scale) (corn; [15]) | Corn plant response rating (corn; [23]) | Plant response rating, Corn (corn; [16]) | Corn plant response rating (corn; [18]) | Cocklebur plant response rating (0 to 100 scale) (cocklebur; [15]) | Cocklebur plant response rating (cocklebur; [23]) | Plant response rating, Cocklebur (cocklebur; [16]) | Cocklebur plant response rating (cocklebur; [18]) | Crabgrass, Large plant response rating (0 to 100 scale) (large crabgrass [12]; [15]) | Crabgrass, Large plant response rating (large crabgrass [12]; [23]) | Crabgrass, Large plant response rating (large crabgrass [12]; [18]) | Pigweed plant response rating (redroot pigweed; [22]) | Morningglory plant response rating (0 to 100 scale) (morningglory [14]; [15]) | Morningglory plant response rating (morningglory [14]; [23]) | Plant response rating, Morningglory (morningglory [14]; [16]) | Morningglory plant response rating (morningglory [14]; [18])
100: Plant response rating, Pigweed (pigweed; [16]) | Plant response rating, Lambsquarters (lambsquarters; [16])
50: Barnyardgrass plant response rating (barnyardgrass [10]; [21]) | Plant response rating, Pigweed (redroot pigweed; [20])
20: Pigweed plant response rating (pigweed; [18]) | Oat, Wild plant response rating (wild oat; [23]) | Foxtail, Giant plant response rating (giant foxtail [4]; [23]) | Crabgrass, Large plant response rating (large crabgrass [5]; [19]) | Plant response rating, Crabgrass, Large (large crabgrass [5]; [20]) | Plant response rating, Morningglory (morningglory [6]; [20]) | Velvetleaf plant response rating (velvetleaf [8]; [21]) | Plant response rating, Crabgrass, Large (large crabgrass [12]; [16]) | Pigweed plant response rating (redroot pigweed; [19]) | Wheat plant response rating (wheat; [23]) | Wheat plant response rating (wheat; [18])
60: Foxtail, Giant plant response rating (giant foxtail [4]; [18])

From US20060069132A1, “Azolecarboxamide herbicides” (priority 2004, published 2006)
